Like-named read-outs stand apart in the source and are kept apart here.
Columns and labels:
[1] = background; cited from earlier work
[2] = in vivo; cited from earlier work
[3] = background; cited from earlier work; remark: listed apart in the source
[4] = Biodistribution of 153Sm complex after tail vein injection; format: in vivo, Sprague Dawley rats; settings: rat, i.v. tail vein; for % INJECTED DOSE, Blood: blood assumed 6.5% of body weight; for % INJECTED DOSE, Bone: femur x 25; for % INJECTED DOSE, Muscle: muscle assumed 43% of body weight
Method: Sprague Dawley rats were allowed to acclimate for five days then injected with 100 μL of the complex solution via a tail vein. The rats weighed between 150 and 200 g at the time of injection. After 30 min. the rats were killed by cervical dislocation and dissected. The amount of radioactivity in each tissue was determined by counting in a NaI scintillation counter coupled to a multichannel analyzer. The counts were compared to the counts in 100 μL standards in order to determine the percentage of the dose in each tissue or organ.
The percent dose in blood was estimated assuming blood to be 6.5% of the total body weight. The percent dose in bone was estimated by multiplying the percent dose in the femur by 25. The percent dose in muscle was estimated assuming muscle to be 43% of the total body weight. The number of rats used in the average is n.
In addition to organ biodistribution, chelates of the compounds of Formula (I) were evaluated for efficiency of bone localization since phosphonates are known for their ability to bind to hydroxyapatite.
When the complex ^153 Sm[N-(2-pyridylmethyl)-N',N",N'"-tris(methylenephosphonic acid ethyl ester)-1,4,7,10-tetraazacyclododecane] The numbers represent the average of a minimum of 2 rats per data point at 2 hours post injection.
When the complex ^153 Sm[N-(2-pyridylmethyl)-N',N",N'"-tris(methylenephosphonic acid propyl ester)-1,4,7,10-tetraazacyclododecane] The numbers represent the average of a minimum of 3 rats per data point at 2 and 24 hours post injection.

For `[Cl][Gd]([Cl])[Cl]` [GdCl3], the “side effects / toxicity” value [1] is given as “toxic to an animal”.
For `CNC[C@H](O)[C@@H](O)[C@H](O)[C@H](O)CO.CNC[C@H](O)[C@@H](O)[C@H](O)[C@H](O)CO.O=C([O-])CN(CCN(CC(=O)[O-])CC(=O)O)CCN(CC(=O)[O-])CC(=O)O.[Gd+3]` [Magnevist™, complex of gadolinium with diethylenetriaminepentaacetic acid], the distribution and elimination [2] is given as “freely distribute in extracellular fluid followed by efficient elimination through the renal system”.
For `CC(O)CN1CCN(CC(=O)[O-])CCN(CC(=O)[O-])CCN(CC(=O)[O-])CC1.[Gd+3]` (stereo not drawn) [Prohance™, [1,4,7-tris(carboxymethyl)-10-(2-hydroxypropyl)-1,4,7,10-tetraazacyclododecanato]gadolinium], the distribution and elimination [2] is given as “freely distribute in extracellular fluid followed by efficient elimination through the renal system”, the “kinetic stability of DO3A derivative chelates” value [3] is given as “gains added kinetic stability by virtue of a pendant hydroxyl moiety” and the “side effects / toxicity” value [1] is given as “fewer side effects than Magnevist™”.
For `O=C([O-])CN1CCN(CC(=O)[O-])CCN(Cc2ccccn2)CCN(CC(=O)[O-])CC1.[153Sm+3]` [^153 Sm-PD3A], the “% Complex” value (pH 1) was 98.30%, the “% Complex” value (pH 2) was 99.38% and the “% Complex” value (pH 4) was 99.62%. For the same molecule, the “% Complex” value (pH 7) was 99.86%, the “% Complex” value (pH 9) was 99.86% and the “% Complex” value (pH 11) was 99.80%. For the same molecule, the “% Complex” value (pH 14) was 99.96%.
With `CCOP(=O)([O-])CN1CCN(Cc2ccccn2)CCN(CP(=O)([O-])OCC)CCN(CP(=O)([O-])OCC)CC1.[153Sm+3]` [^153 Sm-PD3EP, ^153 Sm[N-(2-pyridylmethyl)-N',N",N'"-tris(methylenephosphonic acid ethyl ester)-1,4,7,10-tetraazacyclododecane]] the “% INJECTED DOSE, Brain” value ([4]; 2 hours post injection) was 0.01 % INJECTED DOSE, the “% INJECTED DOSE, Heart” value ([4]; 2 hours post injection) was 0.01 % INJECTED DOSE and the “% INJECTED DOSE, Kidney” value ([4]; 2 hours post injection) was 1.24 % INJECTED DOSE. The “% INJECTED DOSE, Liver” value ([4]; 2 hours post injection) was 0.36 % INJECTED DOSE, the “% INJECTED DOSE, Lung” value ([4]; 2 hours post injection) was 0.02 % INJECTED DOSE and the “% INJECTED DOSE, Spleen” value ([4]; 2 hours post injection) was 0.01 % INJECTED DOSE. For the same molecule, the “% INJECTED DOSE, Urine” value ([4]; 2 hours post injection) was 97.00 % INJECTED DOSE, the “% INJECTED DOSE, Blood” value ([4]; 2 hours post injection) was 0.45 % INJECTED DOSE and the “% INJECTED DOSE, Bone” value ([4]; 2 hours post injection) was 0.82 % INJECTED DOSE. The “% INJECTED DOSE, Muscle” value ([4]; 2 hours post injection) was 0.62 % INJECTED DOSE, the “% Complex” value (pH 1) was 78.95% and the “% Complex” value (pH 3) was 93.80%. For the same molecule, the “% Complex” value (pH 5) was 93.02%, the “% Complex” value (pH 7) was 93.77% and the “% Complex” value (pH 9) was 95.89%. For the same molecule, the “% Complex” value (pH 11) was 95.77% and the “% Complex” value (pH 14) was 94.07%.
With `CCCOP(=O)([O-])CN1CCN(Cc2ccccn2)CCN(CP(=O)([O-])OCCC)CCN(CP(=O)([O-])OCCC)CC1.[153Sm+3]` [^153 Sm-PD3PP, ^153 Sm[N-(2-pyridylmethyl)-N',N",N'"-tris(methylenephosphonic acid propyl ester)-1,4,7,10-tetraazacyclododecane]] the “% INJECTED DOSE, Brain” value ([4]; 2 hours post injection) was 0.04 % INJECTED DOSE, the “% INJECTED DOSE, Heart” value ([4]; 2 hours post injection) was 0.04 % INJECTED DOSE and the “% INJECTED DOSE, Kidney” value ([4]; 2 hours post injection) was 0.86 % INJECTED DOSE. The “% INJECTED DOSE, Large Intestine” value ([4]; 2 hours post injection) was 0.18 % INJECTED DOSE, the “% INJECTED DOSE, Liver” value ([4]; 2 hours post injection) was 20.36 % INJECTED DOSE and the “% INJECTED DOSE, Lung” value ([4]; 2 hours post injection) was 0.20 % INJECTED DOSE. For the same molecule, the “% INJECTED DOSE, Small intestine” value ([4]; 2 hours post injection) was 13.56 % INJECTED DOSE, the “% INJECTED DOSE, Spleen” value ([4]; 2 hours post injection) was 1.19 % INJECTED DOSE and the “% INJECTED DOSE, Stomach” value ([4]; 2 hours post injection) was 1.39 % INJECTED DOSE. For the same molecule, the “% INJECTED DOSE, Urine” value ([4]; 2 hours post injection) was 50.00 % INJECTED DOSE, the “% INJECTED DOSE, Blood” value ([4]; 2 hours post injection) was 0.68 % INJECTED DOSE and the “% INJECTED DOSE, Bone” value ([4]; 2 hours post injection) was 5.93 % INJECTED DOSE. The “% INJECTED DOSE, Muscle” value ([4]; 2 hours post injection) was 0.82 % INJECTED DOSE, the “% INJECTED DOSE, Brain” value ([4]; 24 hours post injection) was 0.00 % INJECTED DOSE and the “% INJECTED DOSE, Feces” value ([4]; 24 hours post injection) was 5.33 % INJECTED DOSE. For the same molecule, the “% INJECTED DOSE, Heart” value ([4]; 24 hours post injection) was 0.02 % INJECTED DOSE, the “% INJECTED DOSE, Kidney” value ([4]; 24 hours post injection) was 0.89 % INJECTED DOSE and the “% INJECTED DOSE, Large Intestine” value ([4]; 24 hours post injection) was 0.16 % INJECTED DOSE. For the same molecule, the “% INJECTED DOSE, Liver” value ([4]; 24 hours post injection) was 2.31 % INJECTED DOSE, the “% INJECTED DOSE, Lung” value ([4]; 24 hours post injection) was 0.40 % INJECTED DOSE and the “% INJECTED DOSE, Small intestine” value ([4]; 24 hours post injection) was 0.13 % INJECTED DOSE. The “% INJECTED DOSE, Spleen” value ([4]; 24 hours post injection) was 0.22 % INJECTED DOSE, the “% INJECTED DOSE, Stomach” value ([4]; 24 hours post injection) was 0.04 % INJECTED DOSE and the “% INJECTED DOSE, Urine” value ([4]; 24 hours post injection) was 83.00 % INJECTED DOSE. The “% INJECTED DOSE, Blood” value ([4]; 24 hours post injection) was 0.03 % INJECTED DOSE, the “% INJECTED DOSE, Bone” value ([4]; 24 hours post injection) was 12.39 % INJECTED DOSE and the “% INJECTED DOSE, Muscle” value ([4]; 24 hours post injection) was 0.27 % INJECTED DOSE. For the same molecule, the “% Complex” value (pH 1) was 72.52%, the “% Complex” value (pH 3) was 87.56% and the “% Complex” value (pH 5) was 92.99%. The “% Complex” value (pH 7) was 95.06%, the “% Complex” value (pH 9) was 95.22% and the “% Complex” value (pH 11) was 92.74%. For the same molecule, the “% Complex” value (pH 14) was 87.65%.

— patent publication US5462725A, “2-pyridylmethylenepolyazamacrocyclophosphonic acids, complexes and derivatives thereof, for use as contrast agents” (priority 1993, dated 1995)
